From PubChem BioAssay AID2060625 (Molecular Pharmacology Branch, DTP, NCI, 2025)
Values joined by “and” are separate entries in the source; they are usually repeats but may differ in a detail not shown here. Equal values may be shown once.

System: 186277-243-T-J2-PDC spheroids with HUVEC/MSC, viability
Test: Anticancer human tumor 186277-243-T-J2-PDC patient-derived colon adenocarcinoma cell line growth inhibition [CLK]
Conditions: for viability, T/C: stronger effect = lower value
How it was run: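 Multi-cell-type spheroids combined patient-derived tumor cells with HUVEC endothelial cells and human mesenchymal stem cells. Paired agents were dosed in half-log steps down from about clinical Cmax, or from 10 microM where Cmax was unknown.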
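Further: compound exposure lasted seven days before readout.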
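Wherever viability, T/C is given: 100% = DMSO vehicle control wells.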

`CC(C)CC(NC(=O)C(Cc1ccccc1)NC(=O)c1cnccn1)B(O)O` (stereo not given) was tested, and the viability, T/C (compound 0.000949 µM) was 95.9% and 106%, the viability, T/C (compound 0.003 µM) was 75.5% and 53.2% and the viability, T/C (compound 0.00949 µM) was 0.47% and 2.37%. For the same compound, the viability, T/C (compound 0.03 µM) was 0.24% and 0.94%, the viability, T/C (compound 0.0949 µM) was 0.79% and 3.7% and the viability, T/C (compound 0.3 µM) was 0.71% and 0.52%. For the same compound, the IC50 (curve of compound) was 0.00444 µM and 0.00322 µM.

`CCc1c2c(nc3ccc(O)cc13)-c1cc3c(c(=O)n1C2)COC(=O)[C@]3(O)CC` was tested, and the viability, T/C (compound 0.00316 µM) was 115% and 111%, the viability, T/C (compound 0.01 µM) was 95.3% and 79.7% and the viability, T/C (compound 0.0316 µM) was 66.4% and 56.8%. For the same compound, the viability, T/C (compound 0.1 µM) was 30.3% and 24.5%, the viability, T/C (compound 0.316 µM) was 26% and 21.8% and the viability, T/C (compound 1 µM) was 21.6% and 16.9%. The IC50 (curve of compound) was 0.0534 µM and 0.0343 µM.

With `CCCS(=O)(=O)Nc1ccc(F)c(C(=O)c2c[nH]c3ncc(-c4ccc(Cl)cc4)cc23)c1F` + CN1CCN(c2cc(C(=O)Nc3cc4cc(-c5cnn(C)c5)ccc4cn3)ccn2)CC1 the IC50 (curve of first compound, second compound 0.0316 µM) was greater than 10 µM, the IC50 (curve of first compound, second compound 0.1 µM) was greater than 10 µM and the IC50 (curve of first compound, second compound 0.316 µM) was less than 0.0316 µM. The IC50 (curve of first compound, second compound 1 µM) was less than 0.0316 µM, the IC50 (curve of first compound, second compound 3.16 µM) was less than 0.0316 µM and the IC50 (curve of first compound, second compound 10 µM) was less than 0.0316 µM. The viability, T/C (second compound 0.0316 µM, first compound 0.0316 µM) was 109%, the viability, T/C (second compound 0.0316 µM, first compound 0.1 µM) was 104% and the viability, T/C (second compound 0.0316 µM, first compound 0.316 µM) was 103%. It also gave a viability, T/C (second compound 0.0316 µM, first compound 1 µM) of 97.4%, a viability, T/C (second compound 0.0316 µM, first compound 3.16 µM) of 113% and a viability, T/C (second compound 0.0316 µM, first compound 10 µM) of 89.6%. It also gave a viability, T/C (second compound 0.1 µM, first compound 0.0316 µM) of 87.4%, a viability, T/C (second compound 0.1 µM, first compound 0.1 µM) of 82.3% and a viability, T/C (second compound 0.1 µM, first compound 0.316 µM) of 86.7%. It also gave a viability, T/C (second compound 0.1 µM, first compound 1 µM) of 99.4%, a viability, T/C (second compound 0.1 µM, first compound 3.16 µM) of 95.9% and a viability, T/C (second compound 0.1 µM, first compound 10 µM) of 69.2%. For the same compound, the viability, T/C (second compound 0.316 µM, first compound 0.0316 µM) was 30.5%, the viability, T/C (second compound 0.316 µM, first compound 0.1 µM) was 30.9% and the viability, T/C (second compound 0.316 µM, first compound 0.316 µM) was 31.8%. For the same compound, the viability, T/C (second compound 0.316 µM, first compound 1 µM) was 32.1%, the viability, T/C (second compound 0.316 µM, first compound 3.16 µM) was 22.5% and the viability, T/C (second compound 0.316 µM, first compound 10 µM) was 20.1%. It also gave a viability, T/C (second compound 1 µM, first compound 0.0316 µM) of 0.48%, a viability, T/C (second compound 1 µM, first compound 0.1 µM) of 0.83% and a viability, T/C (second compound 1 µM, first compound 0.316 µM) of 1.17%. For the same compound, the viability, T/C (second compound 1 µM, first compound 1 µM) was 1.25%, the viability, T/C (second compound 1 µM, first compound 3.16 µM) was 0.57% and the viability, T/C (second compound 1 µM, first compound 10 µM) was 0.46%. For the same compound, the viability, T/C (second compound 3.16 µM, first compound 0.0316 µM) was 1.11%, the viability, T/C (second compound 3.16 µM, first compound 0.1 µM) was 1.22% and the viability, T/C (second compound 3.16 µM, first compound 0.316 µM) was 2.84%. The viability, T/C (second compound 3.16 µM, first compound 1 µM) was 1.64%, the viability, T/C (second compound 3.16 µM, first compound 3.16 µM) was 2.61% and the viability, T/C (second compound 3.16 µM, first compound 10 µM) was 1.65%. It also gave a viability, T/C (second compound 10 µM, first compound 0.0316 µM) of 0.65%, a viability, T/C (second compound 10 µM, first compound 0.1 µM) of 0.72% and a viability, T/C (second compound 10 µM, first compound 0.316 µM) of 1.61%. The viability, T/C (second compound 10 µM, first compound 1 µM) was 0.95%, the viability, T/C (second compound 10 µM, first compound 3.16 µM) was 1.27% and the viability, T/C (second compound 10 µM, first compound 10 µM) was 0.74%.

`C=CC(=O)N1CCN(c2nc(=O)n(-c3c(C)ccnc3C(C)C)c3nc(-c4c(O)cccc4F)c(F)cc23)C(C)C1` (stereo not given) was tested, and the viability, T/C (compound 0.0316 µM) was 103% and 87.6%, the viability, T/C (compound 0.1 µM) was 91.4% and 96.3% and the viability, T/C (compound 0.316 µM) was 97.5% and 90.2%. The viability, T/C (compound 1 µM) was 80.2% and 105%, the viability, T/C (compound 3.16 µM) was 107% and 105% and the viability, T/C (compound 10 µM) was 95.2% and 98.2%. For the same compound, the IC50 (curve of compound) was greater than 10 µM.

With `COc1cccc2c1C(=O)c1c(O)c3c(c(O)c1C2=O)CC(O)(C(=O)CO)CC3OC1CC(N)C(O)C(C)O1` (stereo not given) the viability, T/C (compound 0.0316 µM) was 127%, the viability, T/C (compound 0.1 µM) was 76.1% and the viability, T/C (compound 0.316 µM) was 20.6%. For the same compound, the viability, T/C (compound 1 µM) was 0.4%, the viability, T/C (compound 3.16 µM) was 1.81% and the viability, T/C (compound 10 µM) was 2.31%. It also gave an IC50 (curve of compound) of 0.171 µM.
